From the NIST ThermoML archive (doi:10.1021/je5002494)
± gives the expanded uncertainty stated by the source.

Details: Liquid

Critical pressure [kPa] | Critical temperature [K] | Compound
2159.2 ± 300 | 655.74 ± 3.7 | CCCCCCCC(=O)OCC [ethyl octanoate]
2531.3 ± 300 | 615.22 ± 3.7 | CCCCCC(=O)OCC [ethyl hexanoate]
7379.8 ± 300 | 304.3 ± 3.7 | O=C=O [carbon dioxide]
3670.8 ± 300 | 593.84 ± 3.7 | C/C=C/C(=O)OCC [ethyl trans-2-butenoate]
2730.4 ± 300 | 594.02 ± 3.7 | CCCCC(=O)OCC [ethyl pentanoate]
2356.9 ± 300 | 635.12 ± 3.7 | CCCCCCC(=O)OCC [ethyl heptanoate]
2891.5 ± 300 | 569.98 ± 3.7 | CCCC(=O)OCC [ethyl butanoate]
3828.9 ± 300 | 523.29 ± 3.7 | CCOC(C)=O [ethyl acetate]
3385.6 ± 300 | 546.28 ± 3.7 | CCOC(=O)CC [ethyl propanoate]
